Laboratory results reported in patent US20100069254A1, “Cell Culture Model for Demyelination/Remyelination” (priority 2008, published 2010).
“Also recorded” adds a separate entry of the source.

What was measured:
[1] = system: oligodendrocytes and neurons; experiment: MTS metabolic activity assay (CellTiter 96 AQueous One) of demyelinated cell cultures
Method: Metabolic activity of cells was then measured by an MTS assay as described in the text.
Monitoring of metabolic activity (CellTiter 96® AQueous One; Promega) is used to identify concentrations that caused a minimum amount of damage to the oligodendrocytes and neurons. In this assay a tetrazolium compound (MTS) and an electron coupling reagent (phenazine ethosulfate) are used for calorimetric detection of metabolic activity. MTS is bioreduced, presumably by NADPH or NADH, into a colored formazan product that is soluble in tissue culture medium and can be detected spectrophotometrically. Absorbance at about […] is proportional to metabolic activity and is commonly used to monitor the number of living cells in culture.

Xenopus tadpoles = conditions: 0.1 to 0.2 μg/ml in tadpole bins; cited from earlier work
animals = conditions: injection of 2 μl of a 1% solution; cited from earlier work

Compound: Oc1c(Cl)cc(Cl)c(Cl)c1Cc1c(O)c(Cl)cc(Cl)c1Cl [hexachlorophene]
- effect on cellular metabolism / damage to neural or glial cell bodies (metabolic assay) ([1]; 10 μg/ml, 10 minute exposure): without an observable effect on cellular metabolism; also recorded: mild enough to prevent significant damage to the neural or glial cell bodies
- demyelination in Xenopus tadpoles (Xenopus tadpoles): cause demyelination

Compound: lysophosphatidylcholine
- cellular damage (metabolic assay) ([1]; relatively low concentrations (0.1%), 10 minutes): significant cellular damage
- local demyelination in animals (animals): cause local demyelination
